Patent US9302999B2, “Substituted triazoles as herbicides” (E. I. DU PONT DE NEMOURS AND COMPANY, priority 2012, dated 2016)
Where two headings read alike, the source gives them in different places.

Legend:
Format in all cases: in vivo
[1] = system: velvetleaf (Abutilon theophrasti); assay: Test A pre-/postemergence: velvetleaf; conditions: for pest or weed control at 125 g/ha / pest or weed control at 500 g/ha: Abutilon theophrasti, 240 h; for pest or weed control at 125 g/ha: 125 g ai/ha; for pest or weed control at 500 g/ha: 500 g ai/ha; for Velvetleaf plant response rating: 1000 g ai/ha
Procedure, shortened: (§1)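 Compounds, formulated with surfactant in non-phytotoxic solvent, were applied as a directed soil spray preemergence and as postemergence sprays to 2–10 cm, one- to two-leaf seedlings grown in loam soil blended with sand; visual injury, 0–100, assessed ~10 days post-treatment against untreated controls.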

[2] = system: chickweed (common chickweed, Stellaria media); assay: Test C postemergence: chickweed
Source text: (§2) At the same time, plants selected from these crop and weed species and also barley (winter barley, Hordeum vulgare), canarygrass (Phalaris minor), chickweed (common chickweed, Stellaria media) windgrass (Apera spica-venti) and deadnettle (henbit deadnettle, Lamium amplexicaule) were planted in pots containing Redi-Earth® planting medium (Scotts Company, 14111 Scottslawn Road, Marysville, Ohio 43041) comprising spaghnum peat moss, vermiculite, wetting agent and starter nutrients and treated with postemergence applications of test chemicals formulated in the same manner. Plants ranged in height from 2 to 18 cm (1- to 4-leaf stage) for postemergence treatments.
(§3) Treated plants and controls were maintained in a greenhouse for 13 to 15 days, after which time all species were compared to controls and visually evaluated. Plant response ratings, summarized in Table C, are based on a scale of 0 to 100 where 0 is no effect and 100 is complete control. A dash (-) response means no test result.

wild oat (Avena fatua) = assay: Test C pre-/postemergence: wild oat
Source text: (§4) Seeds of plant species selected from blackgrass (Alopecurus myosuroides), bromegrass, downy (downy bromegrass, Bromus tectorum), foxtail, green (green foxtail, Setaria viridis), ryegrass, Italian (Italian ryegrass, Lolium multiflorum), winter wheat (Triticum aestivum), wild oat (Avena fatua), galium (catchweed bedstraw, Galium aparine), bermudagrass (Cynodon dactylon), surinam grass (Brachiaria decumbens), cocklebur (common cocklebur, Xanthium strumarium), corn (Zea mays), large crabgrass (Digitaria sanguinalis), woolly cupgrass (Eriochloa villosa), foxtail, giant (giant foxtail, Setaria faberii), goosegrass (Eleusine indica), johnsongrass (Sorghum halepense), kochia (Kochia scoparia), lambsquarters (Chenopodium album), morningglory (Ipomoea coccinea), nightshade (eastern black nightshade, Solanum ptycanthum), nutsedge, yellow (yellow nutsedge, Cyperus esculentus), pigweed (Amaranthus retroflexus), ragweed (common ragweed, Ambrosia elation), soybean (Glycine max), common (oilseed) sunflower (Helianthus annuus), Russian thistle (Salsola kali) and velvetleaf (Abutilon theophrasti) were planted into a blend of loam soil and sand and treated preemergence with test chemicals formulated in a non-phytotoxic solvent mixture which included a surfactant.
as §2, §3

[3] = system: ragweed (common ragweed, Ambrosia elation); assay: Test C pre-/postemergence: ragweed
Source text: as §4, §2, §3

[4] = system: pigweed (Amaranthus retroflexus); assay: Test A pre-/postemergence: pigweed; conditions: for pest or weed control at 125 g/ha / pest or weed control at 500 g/ha: Amaranthus retroflexus, 240 h; for pest or weed control at 125 g/ha: 125 g ai/ha; for pest or weed control at 500 g/ha: 500 g ai/ha; for Pigweed plant response rating: 1000 g ai/ha
Procedure, shortened: as §1

[5] = system: foxtail, giant (giant foxtail, Setaria faberii); assay: Test C pre-/postemergence: foxtail, giant
Source text: as §4, §2, §3

kochia (Kochia scoparia) = assay: Test C pre-/postemergence: kochia
Source text: as §4, §2, §3

[6] = system: crabgrass, large (large crabgrass, Digitaria sanguinalis); assay: Test A pre-/postemergence: crabgrass, large; conditions: for pest or weed control at 125 g/ha / pest or weed control at 500 g/ha: Digitaria sanguinalis, 240 h; for pest or weed control at 125 g/ha: 125 g ai/ha; for pest or weed control at 500 g/ha: 500 g ai/ha; for Crabgrass, Large plant response rating: 1000 g ai/ha
Procedure, shortened: as §1

[7] = system: foxtail, giant (giant foxtail, Setaria faberii); assay: Test A pre-/postemergence: foxtail, giant; conditions: Setaria faberi, 240 h; for pest or weed control at 125 g/ha: 125 g ai/ha; for pest or weed control at 500 g/ha: 500 g ai/ha
Procedure, shortened: as §1

[8] = 31 g ai/ha, scale 0 to 100 (0 no effect, 100 complete control)
[9] = 62 g ai/ha, scale 0 to 100 (0 no effect, 100 complete control)
[10] = 125 g ai/ha, scale 0 to 100, 0 no effect, 100 complete control
[11] = Postemergence, 31 g ai/ha, scale 0 to 100 (0 no effect, 100 complete control)
[12] = Postemergence, 62 g ai/ha, scale 0 to 100 (0 no effect, 100 complete control)
[13] = Postemergence, 125 g ai/ha, scale 0 to 100, 0 no effect, 100 complete control
[14] = Postemergence, 250 g ai/ha, scale 0 to 100
[15] = Preemergence, 31 g ai/ha, scale of 0 to 100, 0 is no effect, 100 is complete control
[16] = Preemergence, 62 g ai/ha, scale of 0 to 100, 0 is no effect, 100 is complete control
[17] = Preemergence, 125 g ai/ha, scale 0 to 100, 0 no effect, 100 complete control
[18] = Preemergence, 250 g ai/ha, scale 0 to 100, 0 no effect, 100 complete control
[19] = Postemergence, visual rating on 0 to 100 scale (0 no effect, 100 complete control), approximately ten days
[20] = Preemergence, 0 to 100 scale, 0 is no effect, 100 is complete control

FC(F)(F)COc1nn(-c2ccc(C(F)(F)F)cc2)nc1Cc1ccnc(C(F)(F)F)c1 [Compound 14, 4-[[5-(2,2,2-trifluoroethoxy)-2-[4-(trifluoromethyl)phenyl]-2H-1,2,3-triazol-4-yl]methyl]-2-(trifluoromethyl)pyridine]
pest or weed control at 125 g/ha ([1]; post-emergence, Postemergence, 0 to 100 scale, 0 is no effect, 100 is complete control, read-out: Velvetleaf plant response rating): 100% | pest or weed control at 500 g/ha ([1]; post-emergence, Postemergence, visual rating on 0 to 100 scale (0 no effect, 100 complete control), approximately ten days, read-out: Velvetleaf plant response rating): 100% | pest or weed control at 125 g/ha ([1]; pre-emergence, Preemergence, 0 to 100 scale (0 no effect, 100 complete control), read-out: Plant response rating, Velvetleaf): 70% | pest or weed control at 500 g/ha ([1]; pre-emergence, Preemergence, 0 to 100 scale, 0 is no effect, 100 is complete control, read-out: Plant response rating, Velvetleaf): 90% | Plant response rating, Chickweed [2, 8]: 60 | Plant response rating, Chickweed [2, 9]: 75 | Plant response rating, Chickweed [2, 10]: 75 | Plant response rating, Chickweed ([2]; 250 g ai/ha, scale 0 to 100): 80 | Plant response rating, Oat, Wild (wild oat (Avena fatua); [11]): 25 | Plant response rating, Oat, Wild (wild oat (Avena fatua); [12]): 45 | Plant response rating, Oat, Wild (wild oat (Avena fatua); [13]): 50 | Plant response rating, Oat, Wild (wild oat (Avena fatua); [14]): 60 | Plant response rating, Oat, Wild (wild oat (Avena fatua); [15]): 20 | Plant response rating, Oat, Wild (wild oat (Avena fatua); [16]): 40 | Plant response rating, Oat, Wild (wild oat (Avena fatua); [17]): 70 | Plant response rating, Oat, Wild (wild oat (Avena fatua); [18]): 90 | Plant response rating, Ragweed [3, 11]: 55 | Plant response rating, Ragweed [3, 12]: 55 | Plant response rating, Ragweed [3, 13]: 60 | Plant response rating, Ragweed [3, 14]: 80 | pest or weed control at 125 g/ha ([4]; post-emergence, Postemergence, 0 to 100 scale, 0 is no effect, 100 is complete control, read-out: Pigweed plant response rating): 100% | pest or weed control at 500 g/ha ([4]; post-emergence, Postemergence, visual rating on 0 to 100 scale (0 no effect, 100 complete control), approximately ten days, read-out: Pigweed plant response rating): 100% | pest or weed control at 125 g/ha ([4]; pre-emergence, Preemergence, 0 to 100 scale (0 no effect, 100 complete control), read-out: Plant response rating, Pigweed): 90% | pest or weed control at 500 g/ha ([4]; pre-emergence, Preemergence, 0 to 100 scale, 0 is no effect, 100 is complete control, read-out: Plant response rating, Pigweed): 100% | Plant response rating, Foxtail, Giant [5, 11]: 10 | Plant response rating, Foxtail, Giant [5, 12]: 15 | Plant response rating, Foxtail, Giant [5, 13]: 30 | Plant response rating, Foxtail, Giant [5, 14]: 35 | Plant response rating, Foxtail, Giant [5, 15]: 95 | Plant response rating, Foxtail, Giant [5, 16]: 98 | Plant response rating, Foxtail, Giant [5, 17]: 100 | Plant response rating, Foxtail, Giant [5, 18]: 100 | Plant response rating, Kochia (kochia (Kochia scoparia); [11]): 90 | Plant response rating, Kochia (kochia (Kochia scoparia); [12]): 95 | Plant response rating, Kochia (kochia (Kochia scoparia); [13]): 95 | Plant response rating, Kochia (kochia (Kochia scoparia); [14]): 95 | Plant response rating, Kochia (kochia (Kochia scoparia); [15]): 0 | Plant response rating, Kochia (kochia (Kochia scoparia); [16]): 0 | Plant response rating, Kochia (kochia (Kochia scoparia); [17]): 75 | Plant response rating, Kochia (kochia (Kochia scoparia); [18]): 85 | pest or weed control at 125 g/ha ([6]; post-emergence, Postemergence, 0 to 100 scale, 0 is no effect, 100 is complete control, read-out: Crabgrass, Large plant response rating): 80% | pest or weed control at 500 g/ha ([6]; post-emergence, Postemergence, visual rating on 0 to 100 scale (0 no effect, 100 complete control), approximately ten days, read-out: Crabgrass, Large plant response rating): 90% | pest or weed control at 125 g/ha ([6]; pre-emergence, Preemergence, 0 to 100 scale (0 no effect, 100 complete control), read-out: Plant response rating, Crabgrass, Large): 90% | pest or weed control at 500 g/ha ([6]; pre-emergence, Preemergence, 0 to 100 scale, 0 is no effect, 100 is complete control, read-out: Plant response rating, Crabgrass, Large): 100% | pest or weed control at 125 g/ha ([7]; post-emergence, Postemergence, 0 to 100 scale, 0 is no effect, 100 is complete control, read-out: Foxtail, Giant plant response rating): 80% | pest or weed control at 500 g/ha ([7]; post-emergence, Postemergence, visual rating on 0 to 100 scale (0 no effect, 100 complete control), approximately ten days, read-out: Foxtail, Giant plant response rating): 90% | pest or weed control at 125 g/ha ([7]; pre-emergence, Preemergence, 0 to 100 scale (0 no effect, 100 complete control), read-out: Plant response rating, Foxtail, Giant): 100% | pest or weed control at 500 g/ha ([7]; pre-emergence, Preemergence, 0 to 100 scale, 0 is no effect, 100 is complete control, read-out: Plant response rating, Foxtail, Giant): 100%

Cc1nn(-c2ccc(C(F)(F)F)cn2)nc1Cc1cccc(C(F)(F)F)c1 [Compound 106]
Velvetleaf plant response rating [1, 19]: 70 | Velvetleaf plant response rating [1, 20]: 0 | Plant response rating, Chickweed [2, 8]: 60 | Plant response rating, Chickweed [2, 9]: 70 | Plant response rating, Chickweed [2, 10]: 95 | Plant response rating, Chickweed ([2]; 250 g ai/ha, scale 0 to 100): 98 | Plant response rating, Oat, Wild (wild oat (Avena fatua); [11]): 10 | Plant response rating, Oat, Wild (wild oat (Avena fatua); [12]): 30 | Plant response rating, Oat, Wild (wild oat (Avena fatua); [13]): 45 | Plant response rating, Oat, Wild (wild oat (Avena fatua); [14]): 45 | Plant response rating, Oat, Wild (wild oat (Avena fatua); [15]): 10 | Plant response rating, Oat, Wild (wild oat (Avena fatua); [16]): 45 | Plant response rating, Oat, Wild (wild oat (Avena fatua); [17]): 70 | Plant response rating, Oat, Wild (wild oat (Avena fatua); [18]): 80 | Plant response rating, Ragweed [3, 11]: 10 | Plant response rating, Ragweed [3, 12]: 55 | Plant response rating, Ragweed [3, 13]: 60 | Plant response rating, Ragweed [3, 14]: 60 | Plant response rating, Ragweed [3, 15]: 0 | Plant response rating, Ragweed [3, 16]: 0 | Plant response rating, Ragweed [3, 17]: 0 | Plant response rating, Ragweed [3, 18]: 55 | Pigweed plant response rating [4, 19]: 100 | Pigweed plant response rating [4, 20]: 90 | Plant response rating, Foxtail, Giant [5, 11]: 40 | Plant response rating, Foxtail, Giant [5, 12]: 40 | Plant response rating, Foxtail, Giant [5, 13]: 55 | Plant response rating, Foxtail, Giant [5, 14]: 55 | Plant response rating, Foxtail, Giant [5, 15]: 65 | Plant response rating, Foxtail, Giant [5, 16]: 85 | Plant response rating, Foxtail, Giant [5, 17]: 100 | Plant response rating, Foxtail, Giant [5, 18]: 100 | Plant response rating, Kochia (kochia (Kochia scoparia); [11]): 85 | Plant response rating, Kochia (kochia (Kochia scoparia); [12]): 85 | Plant response rating, Kochia (kochia (Kochia scoparia); [13]): 85 | Plant response rating, Kochia (kochia (Kochia scoparia); [14]): 90 | Plant response rating, Kochia (kochia (Kochia scoparia); [15]): 0 | Plant response rating, Kochia (kochia (Kochia scoparia); [16]): 0 | Plant response rating, Kochia (kochia (Kochia scoparia); [17]): 45 | Plant response rating, Kochia (kochia (Kochia scoparia); [18]): 65 | Crabgrass, Large plant response rating [6, 19]: 80 | Crabgrass, Large plant response rating [6, 20]: 90
